From PubChem BioAssay AID1963865 (Molecular Pharmacology Branch, DTP, NCI, 2024)

System: KRAS PDC multicell spheroid viability
Test: Anticancer human tumor 825966-067-R-J1-PDC patient-derived colon carcinoma cell line growth inhibition [KRAS2]
Conditions: for viability, T/C: stronger effect = lower value
How it was run: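 Combination screen of spheroid viability in tumor-cell co-cultures with endothelial (HUVEC) and mesenchymal stem cell stroma. Each agent was tested in half-log dilutions, topping at clinical Cmax or at 10 microM without a known Cmax.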

[1] = curve of first compound, second compound 0.1 µM
[2] = curve of first compound, second compound 0.316 µM
[3] = curve of first compound, second compound 1 µM
[4] = curve of first compound, second compound 3.16 µM
[5] = curve of first compound, second compound 10 µM
[6] = second compound 0.1 µM, first compound 0.0316 µM
[7] = second compound 0.1 µM, first compound 0.1 µM
[8] = second compound 0.316 µM, first compound 0.0316 µM
[9] = second compound 0.316 µM, first compound 0.1 µM
[10] = second compound 1 µM, first compound 0.0316 µM
[11] = second compound 1 µM, first compound 0.1 µM
[12] = second compound 3.16 µM, first compound 0.0316 µM
[13] = second compound 3.16 µM, first compound 0.1 µM
[14] = second compound 10 µM, first compound 0.0316 µM
[15] = second compound 10 µM, first compound 0.1 µM
[16] = second compound 0.1 µM, first compound 0.000316 µM
[17] = second compound 0.1 µM, first compound 0.001 µM
[18] = second compound 0.1 µM, first compound 0.00316 µM
[19] = second compound 0.1 µM, first compound 0.01 µM
[20] = second compound 0.316 µM, first compound 0.000316 µM
[21] = second compound 0.316 µM, first compound 0.001 µM
[22] = second compound 0.316 µM, first compound 0.00316 µM
[23] = second compound 0.316 µM, first compound 0.01 µM
[24] = second compound 1 µM, first compound 0.000316 µM
[25] = second compound 1 µM, first compound 0.001 µM
[26] = second compound 1 µM, first compound 0.00316 µM
[27] = second compound 1 µM, first compound 0.01 µM
[28] = second compound 3.16 µM, first compound 0.000316 µM
[29] = second compound 3.16 µM, first compound 0.001 µM
[30] = second compound 3.16 µM, first compound 0.00316 µM
[31] = second compound 3.16 µM, first compound 0.01 µM
[32] = second compound 10 µM, first compound 0.000316 µM
[33] = second compound 10 µM, first compound 0.001 µM
[34] = second compound 10 µM, first compound 0.00316 µM
[35] = second compound 10 µM, first compound 0.01 µM
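Note: spheroids exposed to compounds for 7 days.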
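Throughout, for viability, T/C: 100% = DMSO vehicle control viability.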

CC1OCC2(CCN(c3cnc(Sc4ccnc(N)c4Cl)c(N)n3)CC2)C1N (configuration not stated) + CNCc1ccccc1-c1csc(C(C)Nc2nc(C)nc3cc(OC)c(OC)cc23)c1
IC50 [1]: 7620 nM | IC50 [2]: 6900 nM | IC50 [3]: 6710 nM | IC50 [4]: 1140 nM | IC50 [5]: < 31.6 nM | viability, T/C [6]: 109% | viability, T/C [7]: 107% | viability, T/C (second compound 0.1 µM, first compound 0.316 µM): 101% | viability, T/C (second compound 0.1 µM, first compound 1 µM): 94.3% | viability, T/C (second compound 0.1 µM, first compound 3.16 µM): 101% | viability, T/C (second compound 0.1 µM, first compound 10 µM): 34.4% | viability, T/C [8]: 84.8% | viability, T/C [9]: 107% | viability, T/C (second compound 0.316 µM, first compound 0.316 µM): 107% | viability, T/C (second compound 0.316 µM, first compound 1 µM): 88% | viability, T/C (second compound 0.316 µM, first compound 3.16 µM): 105% | viability, T/C (second compound 0.316 µM, first compound 10 µM): 26.8% | viability, T/C [10]: 113% | viability, T/C [11]: 99.9% | viability, T/C (second compound 1 µM, first compound 0.316 µM): 94.4% | viability, T/C (second compound 1 µM, first compound 1 µM): 96.4% | viability, T/C (second compound 1 µM, first compound 3.16 µM): 109% | viability, T/C (second compound 1 µM, first compound 10 µM): 22.1% | viability, T/C [12]: 96.4% | viability, T/C [13]: 36.9% | viability, T/C (second compound 3.16 µM, first compound 0.316 µM): 92.7% | viability, T/C (second compound 3.16 µM, first compound 1 µM): 30% | viability, T/C (second compound 3.16 µM, first compound 3.16 µM): 49.9% | viability, T/C (second compound 3.16 µM, first compound 10 µM): 0.35% | viability, T/C [14]: 0.28% | viability, T/C [15]: 0.27% | viability, T/C (second compound 10 µM, first compound 0.316 µM): 0.35% | viability, T/C (second compound 10 µM, first compound 1 µM): 0.24% | viability, T/C (second compound 10 µM, first compound 3.16 µM): 0.22% | viability, T/C (second compound 10 µM, first compound 10 µM): 0.25%

CC1COCCN1c1cc(-c2ccnn2C)c2ccnc(-c3ccn[nH]3)c2n1 (configuration not stated)
viability, T/C (compound 0.01 µM): 110% [middle of 5 runs] | viability, T/C (compound 3.16 µM): 60% [middle of 5 runs]

CC(C)n1nc(-c2ccc3oc(N)nc3c2)c2c(N)ncnc21 + C=CC(=O)N1CCN(c2nc(=O)n(-c3c(C)ccnc3C(C)C)c3nc(-c4c(O)cccc4F)c(F)cc23)C(C)C1
IC50 [1]: > 100 nM | IC50 [2]: > 100 nM | IC50 [3]: > 100 nM | IC50 [4]: > 100 nM | IC50 [5]: > 100 nM | viability, T/C [16]: 113% | viability, T/C [17]: 116% | viability, T/C [18]: 114% | viability, T/C [19]: 147% | viability, T/C [6]: 130% | viability, T/C [7]: 142% | viability, T/C [20]: 112% | viability, T/C [21]: 96.7% | viability, T/C [22]: 118% | viability, T/C [23]: 130% | viability, T/C [8]: 154% | viability, T/C [9]: 101% | viability, T/C [24]: 106% | viability, T/C [25]: 102% | viability, T/C [26]: 129% | viability, T/C [27]: 138% | viability, T/C [10]: 89.9% | viability, T/C [11]: 107% | viability, T/C [28]: 103% | viability, T/C [29]: 99.5% | viability, T/C [30]: 103% | viability, T/C [31]: 119% | viability, T/C [12]: 114% | viability, T/C [13]: 114% | viability, T/C [32]: 89.6% | viability, T/C [33]: 94.7% | viability, T/C [34]: 106% | viability, T/C [35]: 93.5% | viability, T/C [14]: 79.4% | viability, T/C [15]: 76.5%

CN(C)C/C=C/C(=O)Nc1cc2c(Nc3ccc(F)c(Cl)c3)ncnc2cc1O[C@H]1CCOC1 + COc1cc2nc(C)nc(NC(C)c3cc(N)cc(C(F)(F)F)c3)c2cc1OC1CCOC1
IC50 [1]: > 100 nM | IC50 [2]: > 100 nM | IC50 [3]: > 100 nM | IC50 [4]: > 100 nM | IC50 [5]: > 100 nM | viability, T/C [16]: 94% | viability, T/C [17]: 96.7% | viability, T/C [18]: 82.9% | viability, T/C [19]: 101% | viability, T/C [6]: 96.1% | viability, T/C [7]: 91.8% | viability, T/C [20]: 103% | viability, T/C [21]: 107% | viability, T/C [22]: 95.9% | viability, T/C [23]: 98.9% | viability, T/C [8]: 105% | viability, T/C [9]: 103% | viability, T/C [24]: 92.2% | viability, T/C [25]: 96% | viability, T/C [26]: 105% | viability, T/C [27]: 97.2% | viability, T/C [10]: 99.2% | viability, T/C [11]: 83.5% | viability, T/C [28]: 133% | viability, T/C [29]: 119% | viability, T/C [30]: 107% | viability, T/C [31]: 115% | viability, T/C [12]: 106% | viability, T/C [13]: 105% | viability, T/C [32]: 108% | viability, T/C [33]: 103% | viability, T/C [34]: 116% | viability, T/C [35]: 106% | viability, T/C [14]: 105% | viability, T/C [15]: 95.2%

CC(=O)Nc1cccc(-n2c(=O)n(C3CC3)c(=O)c3c(Nc4ccc(I)cc4F)n(C)c(=O)c(C)c32)c1 + CNCc1ccccc1-c1csc(C(C)Nc2nc(C)nc3cc(OC)c(OC)cc23)c1
IC50 [1]: 23.9 nM | IC50 [2]: 27.5 nM | IC50 [3]: 17.1 nM | IC50 [4]: < 0.1 nM | IC50 [5]: < 0.1 nM | viability, T/C (second compound 0.1 µM, first compound 0.0001 µM): 89.5% | viability, T/C [16]: 107% | viability, T/C [17]: 108% | viability, T/C [18]: 107% | viability, T/C [19]: 92.9% | viability, T/C [6]: 35.7% | viability, T/C (second compound 0.316 µM, first compound 0.0001 µM): 88.3% | viability, T/C [20]: 97.9% | viability, T/C [21]: 105% | viability, T/C [22]: 108% | viability, T/C [23]: 106% | viability, T/C [8]: 42.9% | viability, T/C (second compound 1 µM, first compound 0.0001 µM): 96.1% | viability, T/C [24]: 98.2% | viability, T/C [25]: 112% | viability, T/C [26]: 92.2% | viability, T/C [27]: 78.5% | viability, T/C [10]: 18.1% | viability, T/C (second compound 3.16 µM, first compound 0.0001 µM): 28.4% | viability, T/C [28]: 51.9% | viability, T/C [29]: 16.4% | viability, T/C [30]: 0.36% | viability, T/C [31]: 0.15% | viability, T/C [12]: 0.26% | viability, T/C (second compound 10 µM, first compound 0.0001 µM): 0.16% | viability, T/C [32]: 0.14% | viability, T/C [33]: 0.13% | viability, T/C [34]: 0.11% | viability, T/C [35]: 0.12% | viability, T/C [14]: 0.17%

CCN1CCN(Cc2ccc(Nc3ncc(F)c(-c4cc(F)c5nc(C)n(C(C)C)c5c4)n3)nc2)CC1
viability, T/C (compound 0.00316 µM): 98% [middle of 4 runs] | viability, T/C (compound 0.01 µM): 90.6% [middle of 5 runs] | viability, T/C (compound 0.1 µM): 95.5% [middle of 5 runs] | viability, T/C (compound 0.316 µM): 117% [middle of 5 runs] | IC50 (curve of compound): > 1000 nM
